According to ChEMBL document CHEMBL4219073, “Development of selective inhibitors for the treatment of rheumatoid arthritis: (R)-3-(3-(Methyl(7H-pyrrolo[2,3-d]pyrimidin-4-yl)amino)pyrrolidin-1-yl)-3-oxopropanenitrile as a JAK1-selective inhibitor” (Bioorg Med Chem, 2018):
pIC50: −log10 of the molar value.

Key:
in vivo [1] = details: beagle, dog, iv, 3 mg/kg
in vitro [2] = details: rat, plasma
Description: Protein binding in rat plasma

in vivo [3] = details: Sprague-Dawley, rat, po, 10 mg/kg
in vivo [4] = details: ICR, mouse, po, 10 mg/kg
Description: Half life in ICR mouse at 10 mg/kg, po by LC-MS/MS analysis

in vivo [5] = details: beagle, dog, iv, 3 mg/kg; remark: listed apart in the source
in vivo [6] = details: beagle, dog, po, 5 mg/kg
Description: AUC (0 to infinity) in Beagle dog at 5 mg/kg, po by LC-MS/MS analysis

in vivo [7] = details: beagle, dog, po, 5 mg/kg; remark: listed apart in the source
Description: Cmax in Beagle dog at 5 mg/kg, po by LC-MS/MS analysis

in vivo [8] = details: ICR, mouse, po, 10 mg/kg; remark: listed apart in the source
[9] = target: Voltage-gated inwardly rectifying potassium channel KCNH2 (Homo sapiens, UniProt Q12809)
Description: Inhibition of human ERG expressed in HEK293 cells by automated patch clamp method

in vitro [10] = details: rat, plasma; remark: listed apart in the source
Description: Metabolic stability in rat plasma assessed as parent compound remaining after 30 mins

in vivo [11] = details: ICR, mouse, iv, 5 mg/kg
Description: AUC (0 to t) in ICR mouse at 5 mg/kg, iv by LC-MS/MS analysis

in vitro [12] = details: human, Caco-2
in vivo [13] = details: ICR, mouse, iv, 5 mg/kg; remark: listed apart in the source
Description: AUC (0 to infinity) in ICR mouse at 5 mg/kg, iv by LC-MS/MS analysis

in vivo [14] = details: beagle, dog, iv, 3 mg/kg; remark: listed apart in the source
Description: Half life in Beagle dog at 3 mg/kg, iv by LC-MS/MS analysis

CYP2C19 = CYP2C19 (Homo sapiens, UniProt P33261); assay: in vitro
Description: Inhibition of CYP2C19 (unknown origin) assessed as residual activity at 10 uM relative to control

in vivo [15] = details: ICR, mouse, po, 10 mg/kg; remark: listed apart in the source
Mus musculus = species on record: Mus musculus; details: in vivo, po, 10 mg/kg
in vitro [16] = details: mouse, microsomes
Description: Metabolic stability in mouse liver microsomes assessed as parent compound remaining after 30 mins

in vivo [17] = details: Sprague-Dawley, rat, po, 10 mg/kg; remark: listed apart in the source
CYP2C9 = CYP2C9 (Homo sapiens, UniProt P11712); assay: in vitro
Description: Inhibition of CYP2C9 (unknown origin) assessed as residual activity at 10 uM relative to control

in vivo [18] = details: beagle, dog, po, 5 mg/kg; remark: listed apart in the source
Description: Tmax in Beagle dog at 5 mg/kg, po by LC-MS/MS analysis

in vivo [19] = details: Sprague-Dawley, rat, po, 10 mg/kg; remark: listed apart in the source
in vitro [20] = details: human, microsomes
Description: Metabolic stability in human liver microsomes assessed as parent compound remaining after 30 mins

CYP2D6 = CYP2D6 (Homo sapiens, UniProt P10635); assay: in vitro
Description: Inhibition of CYP2D6 (unknown origin) assessed as residual activity at 10 uM relative to control

in vivo [21] = details: beagle, dog, po, 5 mg/kg; remark: listed apart in the source
Description: AUC (0 to t) in Beagle dog at 5 mg/kg, po by LC-MS/MS analysis

in vivo [22] = details: Sprague-Dawley, rat, po, 10 mg/kg; remark: listed apart in the source
Description: Half life in Sprague-Dawley rat at 10 mg/kg, po by LC-MS/MS analysis

in vitro [23] = details: human, plasma
Description: Metabolic stability in human plasma assessed as parent compound remaining after 30 mins

Canis familiaris = species on record: Canis familiaris; details: dog, in vivo, po, 5 mg/kg
Description: Oral bioavailability in Beagle dog at 5 mg/kg by LC-MS/MS analysis

in vitro [24] = details: human, Caco-2; remark: listed apart in the source
in vivo [25] = details: Sprague-Dawley, rat, iv, 5 mg/kg
Description: AUC (0 to infinity) in Sprague-Dawley rat at 5 mg/kg, iv by LC-MS/MS analysis

in vivo [26] = details: beagle, dog, po, 5 mg/kg; remark: listed apart in the source
Description: MRT in Beagle dog at 5 mg/kg, po by LC-MS/MS analysis

in vivo [27] = details: Sprague-Dawley, rat, po, 10 mg/kg; remark: listed apart in the source
in vitro [28] = details: human, plasma; remark: listed apart in the source
Description: Protein binding in human plasma

in vivo [29] = details: ICR, mouse, po, 10 mg/kg; remark: listed apart in the source
Description: MRT in ICR mouse at 10 mg/kg, po by LC-MS/MS analysis

[30] = target: T1, Tyrosine-protein kinase JAK2 (Homo sapiens, UniProt O60674); details: read-out: INH
Description: Inhibition of recombinant human JAK2 (808-end residues) at 10 uM in presence of ATP relative to control

in vivo [31] = details: ICR, mouse, po, 10 mg/kg; remark: listed apart in the source
in vitro [32] = details: dog, microsomes
Description: Metabolic stability in dog liver microsomes assessed as parent compound remaining after 30 mins

in vivo [33] = details: Sprague-Dawley, rat, iv, 5 mg/kg; remark: listed apart in the source
Description: AUC (0 to t) in Sprague-Dawley rat at 5 mg/kg, iv by LC-MS/MS analysis

in vitro [34] = details: human, plasma; remark: listed apart in the source
Description: Metabolic stability in human plasma assessed as parent compound remaining after 120 mins

in vitro [35] = details: rat, plasma; remark: listed apart in the source
Description: Metabolic stability in rat plasma assessed as parent compound remaining after 120 mins

in vivo [36] = details: ICR, mouse, iv, 5 mg/kg; remark: listed apart in the source
Description: MRT in ICR mouse at 5 mg/kg, iv by LC-MS/MS analysis

in vivo [37] = details: beagle, dog, po, 5 mg/kg; remark: listed apart in the source
Description: Half life in Beagle dog at 5 mg/kg, po by LC-MS/MS analysis

in vivo [38] = details: Sprague-Dawley, rat, iv, 5 mg/kg; remark: listed apart in the source
Description: MRT in Sprague-Dawley rat at 5 mg/kg, iv by LC-MS/MS analysis

in vivo [39] = details: Sprague-Dawley, rat, po, 10 mg/kg; remark: listed apart in the source
Description: MRT in Sprague-Dawley rat at 10 mg/kg, po by LC-MS/MS analysis

in vivo [40] = details: ICR, mouse, iv, 5 mg/kg; remark: listed apart in the source
Description: Half life in ICR mouse at 5 mg/kg, iv by LC-MS/MS analysis

in vivo [41] = details: ICR, mouse, po, 10 mg/kg; remark: listed apart in the source
CYP3A4 = CYP3A4 (Homo sapiens, UniProt P08684); assay: in vitro
Description: Inhibition of CYP3A4 (unknown origin) assessed as residual activity at 10 uM relative to control

in vitro [42] = details: rat, microsomes
Description: Metabolic stability in rat liver microsomes assessed as parent compound remaining after 30 mins

in vivo [43] = details: beagle, dog, iv, 3 mg/kg; remark: listed apart in the source
Description: MRT in Beagle dog at 3 mg/kg, iv by LC-MS/MS analysis

CYP1A2 = target: T2, CYP1A2 (Homo sapiens, UniProt P05177); assay: in vitro
T2 sequence (P05177 whole entry): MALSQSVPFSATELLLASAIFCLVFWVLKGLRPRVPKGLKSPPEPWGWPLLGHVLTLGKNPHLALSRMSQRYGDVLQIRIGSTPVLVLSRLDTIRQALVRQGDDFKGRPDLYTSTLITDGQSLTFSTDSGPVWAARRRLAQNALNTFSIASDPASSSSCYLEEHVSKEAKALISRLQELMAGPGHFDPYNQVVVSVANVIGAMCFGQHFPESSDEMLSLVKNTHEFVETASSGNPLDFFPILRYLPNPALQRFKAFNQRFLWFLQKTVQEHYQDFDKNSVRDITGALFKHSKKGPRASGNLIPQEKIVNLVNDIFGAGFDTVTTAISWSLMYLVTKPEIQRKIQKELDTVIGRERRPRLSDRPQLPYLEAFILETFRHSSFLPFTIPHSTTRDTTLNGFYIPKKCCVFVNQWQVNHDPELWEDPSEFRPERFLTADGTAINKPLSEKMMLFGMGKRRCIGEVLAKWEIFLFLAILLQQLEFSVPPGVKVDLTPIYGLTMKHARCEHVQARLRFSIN
Description: Inhibition of CYP1A2 (unknown origin) assessed as residual activity at 10 uM relative to control

in vivo [44] = details: Sprague-Dawley, rat, iv, 5 mg/kg; remark: listed apart in the source
Description: Half life in Sprague-Dawley rat at 5 mg/kg, iv by LC-MS/MS analysis

[45] = target: Tyrosine-protein kinase JAK1 (Homo sapiens, UniProt P23458)
Description: Inhibition of recombinant human JAK1 (866-end residues) in presence of ATP

[46] = target: T1, Tyrosine-protein kinase JAK2; format: ADME
Description: Inhibition of recombinant human JAK2 (808-end residues) in presence of ATP

Sequence of Tyrosine-protein kinase JAK1 (P23458 whole entry): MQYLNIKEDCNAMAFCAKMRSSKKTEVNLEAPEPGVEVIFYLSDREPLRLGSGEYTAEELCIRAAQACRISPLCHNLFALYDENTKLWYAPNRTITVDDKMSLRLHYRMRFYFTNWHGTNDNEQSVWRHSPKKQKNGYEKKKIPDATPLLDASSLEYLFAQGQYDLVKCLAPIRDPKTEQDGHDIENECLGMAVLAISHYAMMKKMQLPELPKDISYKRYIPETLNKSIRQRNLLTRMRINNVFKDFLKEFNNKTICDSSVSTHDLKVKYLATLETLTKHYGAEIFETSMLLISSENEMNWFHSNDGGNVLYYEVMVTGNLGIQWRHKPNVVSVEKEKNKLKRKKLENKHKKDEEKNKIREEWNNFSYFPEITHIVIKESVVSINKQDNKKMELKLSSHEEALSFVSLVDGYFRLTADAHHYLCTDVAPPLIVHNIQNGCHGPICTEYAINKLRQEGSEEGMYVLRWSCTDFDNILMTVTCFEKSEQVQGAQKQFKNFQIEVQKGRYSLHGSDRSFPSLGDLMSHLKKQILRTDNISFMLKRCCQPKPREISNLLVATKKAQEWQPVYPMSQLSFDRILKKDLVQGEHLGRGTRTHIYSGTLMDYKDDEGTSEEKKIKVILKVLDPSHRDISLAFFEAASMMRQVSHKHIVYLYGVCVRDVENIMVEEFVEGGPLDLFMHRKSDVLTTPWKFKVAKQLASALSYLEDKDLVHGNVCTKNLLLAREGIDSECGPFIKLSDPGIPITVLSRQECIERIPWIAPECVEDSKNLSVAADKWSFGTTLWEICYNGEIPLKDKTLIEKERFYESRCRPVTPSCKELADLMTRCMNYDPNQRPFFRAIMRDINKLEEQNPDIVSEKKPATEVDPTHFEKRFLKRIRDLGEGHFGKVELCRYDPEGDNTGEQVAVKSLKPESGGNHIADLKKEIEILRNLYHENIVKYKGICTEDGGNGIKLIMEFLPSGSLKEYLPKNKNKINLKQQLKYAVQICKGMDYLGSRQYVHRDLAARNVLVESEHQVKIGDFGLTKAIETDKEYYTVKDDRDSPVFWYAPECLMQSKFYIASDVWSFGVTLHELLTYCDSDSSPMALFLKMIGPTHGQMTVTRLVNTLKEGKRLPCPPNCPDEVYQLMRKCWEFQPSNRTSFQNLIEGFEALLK
T1 sequence (O60674 whole entry): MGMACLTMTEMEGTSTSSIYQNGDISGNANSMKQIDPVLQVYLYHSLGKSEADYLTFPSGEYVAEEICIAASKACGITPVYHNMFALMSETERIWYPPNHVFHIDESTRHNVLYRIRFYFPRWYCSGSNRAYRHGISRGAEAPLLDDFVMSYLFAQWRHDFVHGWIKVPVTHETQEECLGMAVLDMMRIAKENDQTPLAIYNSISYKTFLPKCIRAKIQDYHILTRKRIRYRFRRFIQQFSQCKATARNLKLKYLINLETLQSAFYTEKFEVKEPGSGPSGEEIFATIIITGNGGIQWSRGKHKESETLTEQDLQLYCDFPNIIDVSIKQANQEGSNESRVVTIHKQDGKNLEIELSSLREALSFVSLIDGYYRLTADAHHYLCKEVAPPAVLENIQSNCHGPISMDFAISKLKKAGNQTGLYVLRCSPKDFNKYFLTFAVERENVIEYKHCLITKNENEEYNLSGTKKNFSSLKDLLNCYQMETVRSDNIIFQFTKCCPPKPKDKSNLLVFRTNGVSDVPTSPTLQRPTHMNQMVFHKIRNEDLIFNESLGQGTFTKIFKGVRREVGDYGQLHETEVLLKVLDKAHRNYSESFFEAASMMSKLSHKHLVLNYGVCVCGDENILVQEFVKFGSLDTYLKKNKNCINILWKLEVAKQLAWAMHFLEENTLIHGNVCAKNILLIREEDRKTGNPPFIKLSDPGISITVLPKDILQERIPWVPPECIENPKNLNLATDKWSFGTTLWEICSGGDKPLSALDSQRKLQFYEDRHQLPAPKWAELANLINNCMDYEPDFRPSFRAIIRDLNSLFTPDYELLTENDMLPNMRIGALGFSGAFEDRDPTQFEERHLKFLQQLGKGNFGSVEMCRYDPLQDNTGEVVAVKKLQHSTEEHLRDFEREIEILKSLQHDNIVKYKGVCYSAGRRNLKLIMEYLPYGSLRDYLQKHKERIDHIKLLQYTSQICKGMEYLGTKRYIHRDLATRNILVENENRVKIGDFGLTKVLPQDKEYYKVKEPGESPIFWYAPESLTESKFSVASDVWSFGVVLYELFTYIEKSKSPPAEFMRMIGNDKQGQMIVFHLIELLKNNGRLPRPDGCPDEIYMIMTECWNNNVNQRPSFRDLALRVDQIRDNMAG
Sequence of Voltage-gated inwardly rectifying potassium channel KCNH2 (Q12809 whole entry): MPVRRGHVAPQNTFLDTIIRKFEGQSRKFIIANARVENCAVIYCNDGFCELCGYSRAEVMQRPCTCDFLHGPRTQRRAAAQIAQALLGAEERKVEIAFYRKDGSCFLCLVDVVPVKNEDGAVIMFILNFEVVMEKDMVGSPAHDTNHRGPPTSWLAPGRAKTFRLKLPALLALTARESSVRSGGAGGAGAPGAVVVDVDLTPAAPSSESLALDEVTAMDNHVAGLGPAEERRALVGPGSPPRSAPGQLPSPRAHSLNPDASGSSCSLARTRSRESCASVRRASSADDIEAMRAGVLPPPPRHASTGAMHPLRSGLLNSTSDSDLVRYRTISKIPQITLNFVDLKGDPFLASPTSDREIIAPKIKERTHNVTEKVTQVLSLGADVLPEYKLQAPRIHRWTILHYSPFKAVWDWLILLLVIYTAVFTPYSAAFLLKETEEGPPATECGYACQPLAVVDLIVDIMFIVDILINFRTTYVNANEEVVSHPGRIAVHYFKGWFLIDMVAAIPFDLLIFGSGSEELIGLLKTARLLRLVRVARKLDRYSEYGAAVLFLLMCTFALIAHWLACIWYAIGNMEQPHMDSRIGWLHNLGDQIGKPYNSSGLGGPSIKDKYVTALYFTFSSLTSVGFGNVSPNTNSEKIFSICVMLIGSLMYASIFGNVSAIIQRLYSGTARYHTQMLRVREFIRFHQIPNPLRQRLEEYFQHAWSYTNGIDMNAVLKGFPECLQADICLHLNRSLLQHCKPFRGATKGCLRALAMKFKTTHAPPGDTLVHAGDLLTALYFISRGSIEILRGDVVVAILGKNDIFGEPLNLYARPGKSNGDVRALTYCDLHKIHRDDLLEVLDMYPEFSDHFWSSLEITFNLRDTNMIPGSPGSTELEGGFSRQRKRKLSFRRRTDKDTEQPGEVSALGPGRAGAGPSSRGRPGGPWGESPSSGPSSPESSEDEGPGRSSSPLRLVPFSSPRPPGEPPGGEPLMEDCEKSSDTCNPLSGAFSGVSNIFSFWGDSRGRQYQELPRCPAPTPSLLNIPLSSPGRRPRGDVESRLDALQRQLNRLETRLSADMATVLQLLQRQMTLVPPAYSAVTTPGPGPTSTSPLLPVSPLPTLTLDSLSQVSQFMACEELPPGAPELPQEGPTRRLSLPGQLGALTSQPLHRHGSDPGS
Sequence of CYP2C9 (P11712 whole entry): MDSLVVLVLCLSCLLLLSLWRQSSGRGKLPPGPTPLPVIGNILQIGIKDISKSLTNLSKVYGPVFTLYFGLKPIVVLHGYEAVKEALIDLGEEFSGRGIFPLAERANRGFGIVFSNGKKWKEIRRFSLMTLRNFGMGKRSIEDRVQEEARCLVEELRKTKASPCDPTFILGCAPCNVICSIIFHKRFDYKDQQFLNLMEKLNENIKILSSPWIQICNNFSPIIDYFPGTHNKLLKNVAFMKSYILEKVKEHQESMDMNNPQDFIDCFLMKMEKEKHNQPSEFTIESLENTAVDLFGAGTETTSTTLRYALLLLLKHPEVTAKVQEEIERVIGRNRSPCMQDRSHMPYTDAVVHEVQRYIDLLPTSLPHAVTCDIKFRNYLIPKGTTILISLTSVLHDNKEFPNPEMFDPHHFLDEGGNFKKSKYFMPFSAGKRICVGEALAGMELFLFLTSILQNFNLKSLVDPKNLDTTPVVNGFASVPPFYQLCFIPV
Sequence of CYP3A4 (P08684 whole entry): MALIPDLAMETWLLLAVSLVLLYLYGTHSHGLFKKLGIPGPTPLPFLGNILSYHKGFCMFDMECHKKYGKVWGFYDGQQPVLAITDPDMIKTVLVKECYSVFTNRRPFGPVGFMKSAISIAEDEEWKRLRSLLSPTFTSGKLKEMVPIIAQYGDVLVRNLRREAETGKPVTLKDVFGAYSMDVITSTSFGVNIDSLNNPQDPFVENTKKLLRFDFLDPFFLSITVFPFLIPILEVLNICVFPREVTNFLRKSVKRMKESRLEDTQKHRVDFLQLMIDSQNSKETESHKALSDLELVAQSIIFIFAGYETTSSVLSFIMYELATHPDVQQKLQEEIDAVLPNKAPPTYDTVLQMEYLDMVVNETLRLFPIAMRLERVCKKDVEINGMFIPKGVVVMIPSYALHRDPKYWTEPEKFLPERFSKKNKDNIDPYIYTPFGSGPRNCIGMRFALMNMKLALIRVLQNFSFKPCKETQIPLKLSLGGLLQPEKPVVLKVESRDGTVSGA
Sequence of CYP2D6 (P10635 whole entry): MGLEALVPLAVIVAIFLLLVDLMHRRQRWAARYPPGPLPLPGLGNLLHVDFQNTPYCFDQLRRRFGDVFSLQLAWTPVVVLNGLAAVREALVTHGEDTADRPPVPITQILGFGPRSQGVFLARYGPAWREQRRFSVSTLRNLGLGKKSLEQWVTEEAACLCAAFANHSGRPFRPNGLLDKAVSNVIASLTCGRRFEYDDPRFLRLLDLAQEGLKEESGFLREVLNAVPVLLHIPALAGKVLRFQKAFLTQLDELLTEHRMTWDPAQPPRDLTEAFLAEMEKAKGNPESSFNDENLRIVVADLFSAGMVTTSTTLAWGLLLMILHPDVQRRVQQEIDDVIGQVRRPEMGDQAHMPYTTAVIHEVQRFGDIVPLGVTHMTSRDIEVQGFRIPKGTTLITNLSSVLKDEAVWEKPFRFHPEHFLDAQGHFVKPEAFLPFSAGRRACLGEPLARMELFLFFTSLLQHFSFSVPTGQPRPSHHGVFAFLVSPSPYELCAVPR

## CN(c1ncnc2[nH]ccc12)[C@@H]1CCN(C(=O)CC#N)C1
In vivo [1]
  AUC(0-inf): 2200 ng·h/mL
In vitro [2]
  fraction unbound: 0.823
In vivo [3]
  Cmax: 1900 ng/mL
In vivo [4]
  half-life: 2.1 h
In vivo [5]
  AUC(0-t): 2100 ng·h/mL
In vivo [6]
  AUC(0-inf): 6500 ng·h/mL
In vivo [7]
  Cmax: 1900 ng/mL
In vivo [8]
  Tmax: 0.3 h
[9]
  pIC50: 4.03
In vitro [10]
  remaining at 0.5 h: > 100%
In vivo [11]
  AUC(0-t): 510 ng·h/mL
In vitro [12]
  Papp A→B: 3.8 ×10⁻⁶ cm/s
In vivo [13]
  AUC(0-inf): 680 ng·h/mL
In vivo [14]
  half-life: 1.6 h
CYP2C19
  activity at 10 µM: 91.8%
In vivo [15]
  AUC(0-t): 1900 ng·h/mL
Mus musculus
  F: 190%
In vitro [16]
  remaining at 0.5 h: > 100%
In vivo [17]
  AUC(0-inf): 4300 ng·h/mL
CYP2C9
  activity at 10 µM: > 100%
In vivo [18]
  Tmax: 1.1 h
In vivo [19]
  Tmax: 0.3 h
In vitro [20]
  remaining at 0.5 h: 97.6%
CYP2D6
  activity at 10 µM: > 100%
In vivo [21]
  AUC(0-t): 6400 ng·h/mL
In vivo [22]
  half-life: 2.1 h
In vitro [23]
  remaining at 0.5 h: 96.3%
Canis familiaris
  F: 180%
In vitro [24]
  Papp B→A: 7.7 ×10⁻⁶ cm/s
In vivo [25]
  AUC(0-inf): 950 ng·h/mL
In vivo [26]
  MRT: 3.1 h
In vivo [27]
  AUC(0-t): 4100 ng·h/mL
In vitro [28]
  fraction unbound: 0.853
In vivo [29]
  MRT: 3.1 h
[30]
  inhibition at 10 µM: > 90%
In vivo [31]
  AUC(0-inf): 2100 ng·h/mL
In vitro [32]
  remaining at 0.5 h: 92.8%
In vivo [33]
  AUC(0-t): 930 ng·h/mL
In vitro [34]
  remaining at 2 h: 99.8%
In vitro [35]
  remaining at 2 h: > 100%
In vivo [36]
  MRT: 1.4 h
In vivo [37]
  half-life: 1.7 h
In vivo [38]
  MRT: 0.9 h
In vivo [39]
  MRT: 2.9 h
In vivo [40]
  half-life: 0.9 h
In vivo [41]
  Cmax: 1000 ng/mL
CYP3A4
  activity at 10 µM: 98.2%
In vitro [42]
  remaining at 0.5 h: 92.8%
In vivo [43]
  MRT: 2.4 h
CYP1A2
  activity at 10 µM: 89.3%
In vivo [44]
  half-life: 0.7 h

## CN(c1ncnc2[nH]ccc12)[C@@H]1CCN(S(=O)(=O)c2cccc([N+](=O)[O-])c2)C1
[45]
  pIC50: 8.72
In vitro [16]
  remaining at 0.5 h: 3.1%
In vitro [20]
  remaining at 0.5 h: 13.4%
[46]
  pIC50: 7.74
In vitro [32]
  remaining at 0.5 h: 10.4%
In vitro [42]
  remaining at 0.5 h: 2.5%

## CN(c1ncnc2[nH]ccc12)[C@H]1CN(C(=O)CC#N)CC12CCC2
[45]
  pIC50: 7.80
[46]
  pIC50: 6.35

## CCCCN1CC[C@@H](N(C)c2ncnc3[nH]ccc23)C1
[45]
  pIC50: 6.13
[46]
  pIC50: 4.57

## CN(c1ncnc2[nH]ccc12)[C@@H]1CCN(CCC#N)C1
[45]
  pIC50: 7.28
[46]
  pIC50: 5.72

## CN(c1ncnc2[nH]ccc12)[C@@H]1CCN(S(=O)(=O)N2CCOCC2)C1
[45]
  pIC50: 6.57
[46]
  pIC50: 5.36

## CN(c1ncnc2[nH]ccc12)[C@@H]1CCN(S(=O)(=O)c2ccccc2F)C1
[45]
  pIC50: 7.60
[46]
  pIC50: 6.89

## CN(c1ncnc2[nH]ccc12)[C@@H]1CCN(C(=O)CN=[N+]=[N-])C1
[45]
  pIC50: 8.00
[46]
  pIC50: 6.77

## CC(C)CC(=O)N1CC[C@@H](N(C)c2ncnc3[nH]ccc23)C1
[45]
  pIC50: 7.15
[46]
  pIC50: 5.41
